# Results: patent US20250326794A1, “ANTI-CANCER LEUCINE-RICH PEPTIDES AND USES THEREOF” (KING'S COLLEGE LONDON, priority 2019, published 2025)
# Like-named read-outs stand apart in the source and are kept apart here.
# What was measured:
# [1] = test system: U2OS (human bone osteosarcoma)
# Excerpt: (§1) HMLER (human mammary endothelial cancer cells), HMLER-shEcad (human mammary endothelial cancer stem cells), and MCF-10A (healthy human mammary endothelial) cells were maintained in Mammary Epithelial Cell Growth Medium (MEGM) with supplements and growth factors: bovine pituitary extract (BPE), hydrocortisone, human epidermal growth factor (hEGF), insulin, and gentamicin/amphotericin-B. HEK293T (human embryonic kidney cell), and U2OS (Homo sapiens bone osteosarcoma) cells were maintained in Dulbecco's Modified Eagle's Medium (DMEM) with a final concentration of 10% fetal bovine serum. The cells were grown in T75 flask at 310 K in a humidified atmosphere containing 5% CO2.
# (§2) The colourimetric MTT (3-(4,5-dimethylthiazol-2-yl)-2,5-diphenyltetrazolium bromide) assay was used to determine the toxicity of the anticancer peptides and conventional anticancer drugs. 5×10^3 cells were seeded in each well of a 96-well microplate. The cells were incubated overnight. Elevated concentrations of the compounds (0, 0.1, 0.2, 0.4, 0.8, 1.6, 3.1, 6.3, 12.5, 25, 50 and 100 μM) were added and incubated for 72 hr with a total volume 200 μL. The stock solutions of the compounds were prepared as 5 mM solutions in DMSO and diluted using media or in pure water. The final concentration of DMSO in each well was either 0.5% or 0% and this amount was present in the untreated control. After 72 hr, 20 μL of a 4 mg/mL solution of MTT in PBS was added to each well, and the plate was incubated for an additional 4 hr. The MEGM/MTT mixture was aspirated and 100 μL of DMSO was added to dissolve the resulting purple formazan crystals. The absorbance of the solutions in each well was read at 550 nm wavelength. Absorbance values were normalized to either DMSO-containing or non DMSO-containing control wells and plotted as concentration of test compound versus % cell viability. IC50 values were interpolated from the resulting dose dependent curves.
# (§3) The peptides were screened against several different human cell lines and their cytotoxicity were determined. Cell lines utilised include MCF-10A (human breast epithelial cell), HMLER (human breast cancer bulk cell), HMLER-shEcad (human breast cancer stem cell), HEK293T (human embryonic kidney cell), and U2OS (human bone osteosarcoma).
# [2] = test system: HEK293T (human embryonic kidney cell); experiment: cells
# Excerpt: as §1, §2, §3
# [3] = test system: HMLER (human breast cancer bulk cell); experiment: cells
# Excerpt: as §1, §2, §3
# [4] = test system: HMLER-shEcad (human breast cancer stem cell); experiment: cells
# Excerpt: as §1, §2, §3
SMILES,IC50 ([1]; 72 h),IC50 ([2]; 72 h),IC50 ([3]; 72 h),IC50 ([4]; 72 h),"IC50 ([1]; read-out: IC50 U20S, MTT, 72 hr)","IC50 ([2]; read-out: IC50 HEK293T, MTT, 72 hr)","IC50 ([3]; read-out: IC50 HMLER, MTT, 72 hr)","IC50 ([4]; read-out: IC50 HMLER-shEcad, MTT, 72 hr)"
CC(C)C[C@@H](NC(=O)CN)C(=O)N[C@H](CC(C)C)C(=O)N[C@H](CC(=O)O)C(=O)N[C@H](CC(C)C)C(=O)N[C@H](CC(C)C)C(=O)N[C@H](CCC(=O)O)C(=O)N[C@H](CC(C)C)C(=O)N[C@H](CC(C)C)C(=O)N[C@H](CC(C)C)C(=O)N[C@H](CCCCN)C(=O)N[C@H](C)C(=O)N[C@H](C)C(=O)NCC(=O)N[C@H](Cc1c[nH]c2ccccc12)C(N)=O [D-form DEK],5.84 ± 0.04 µM,3.28 ± 0.21 µM,0.44 ± 0.1 µM,0.36 µM,–,–,–,–
CC(C)C[C@@H](NC(=O)CN)C(=O)N[C@H](CC(C)C)C(=O)N[C@H](CC(=O)O)C(=O)N[C@H](CC(C)C)C(=O)N[C@H](CC(C)C)C(=O)N[C@H](Cc1c[nH]cn1)C(=O)N[C@H](CC(C)C)C(=O)N[C@H](CC(C)C)C(=O)N[C@H](CC(C)C)C(=O)N[C@H](CCCCN)C(=O)N[C@H](C)C(=O)N[C@H](C)C(=O)NCC(=O)N[C@H](Cc1c[nH]c2ccccc12)C(N)=O [D-form DHK],–,–,–,–,1.24 ± 0.03 µM,1.55 ± 0.37 µM,0.32 ± 0.07 µM,0.23 ± 0.04 µM
